Active and inactive are the calls of the source. No cut-off for these calls is given here.
Columns and labels:
[1] = Cytotoxicity against human U87 cells after 72 hrs by MTT assay; format: functional, cell-based, U-87MG ATCC
[2] = target: T1, DNA-binding protein inhibitor ID-1 (Homo sapiens) (UniProt P41134); test: Inhibition of ID1 in human U87 cells at 100 uM by luciferase reporter gene assay; format: cell-based; details: U-87MG ATCC
T1 sequence (whole entry): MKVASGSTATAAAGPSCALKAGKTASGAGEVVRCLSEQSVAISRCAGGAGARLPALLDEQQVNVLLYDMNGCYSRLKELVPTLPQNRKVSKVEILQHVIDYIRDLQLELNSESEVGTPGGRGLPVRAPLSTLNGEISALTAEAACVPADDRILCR

[3] = Cytotoxicity against mouse LLC cells after 72 hrs by MTT assay; format: functional, cell-based; details: Lewis lung carcinoma
[4] = tested on: HeLa; test: Cytotoxicity against human HeLa cells after 72 hrs by MTT assay; format: functional, cell-based
[5] = tested on: SMMC-7721; test: Cytotoxicity against human SMMC7721 cells after 72 hrs by MTT assay; format: functional, cell-based; details: SMMC-7721, 72 h
[6] = Toxicity in brine shrimp larvae assessed as mortality after 24 hrs by microtiter plate analysis; format: organism-based; details: artemia salina, in vivo
[7] = tested on: MCF7; test: Estrogenic activity in human MCF7 cells at 5 uM by luciferase reporter gene assay; format: functional, cell-based
[8] = tested on: MCF7; test: Estrogenic activity in human MCF7 cells at 1 uM by luciferase reporter gene assay; format: functional, cell-based
[9] = tested on: MCF7; test: Estrogenic activity in human MCF7 cells by luciferase reporter gene assay; format: functional, cell-based
[10] = Homo sapiens, U-87 MG, 72 h, read-out: IC50

| inhibition [2] | SMILES | IC50 [1, 10] | IC50 ([1]; u-87mg atcc) | also measured |
| --- | --- | --- | --- | --- |
| 63.7% | CCCCCC(=O)O[C@H]1c2cc(OC)c(OC)c(OC)c2-c2c(cc3c(c2OC)OCO3)C[C@H](C)[C@]1(C)O | 67.4 µM | – | – |
| 32.7% | CCCCCCCCCCCC(=O)O[C@H]1c2cc(OC)c(OC)c(OC)c2-c2c(cc3c(c2OC)OCO3)C[C@H](C)[C@]1(C)O | 70 µM | – | – |
| 46.9% | CCCCCCCCCC(=O)O[C@H]1c2cc(OC)c(OC)c(OC)c2-c2c(cc3c(c2OC)OCO3)C[C@H](C)[C@]1(C)O | 58.8 µM | – | – |
| 57.6% | CCCCCCCC(=O)O[C@H]1c2cc(OC)c(OC)c(OC)c2-c2c(cc3c(c2OC)OCO3)C[C@H](C)[C@]1(C)O | – | Not Active | – |
| 1% | COc1cc2c(c(OC)c1OC)-c1c(cc3c(c1OC)OCO3)C[C@H](C)[C@](C)(O)[C@H]2O [SCHISANTHEROL A] | – | Not Active | – |
| 57.8% | CCCCCCC(=O)O[C@H]1c2cc(OC)c(OC)c(OC)c2-c2c(cc3c(c2OC)OCO3)C[C@H](C)[C@]1(C)O | 61.7 µM | – | – |
| 36.3% | CCCCC(=O)O[C@H]1c2cc(OC)c(OC)c(OC)c2-c2c(cc3c(c2OC)OCO3)C[C@H](C)[C@]1(C)O | – | Not Active | – |
| 36.6% | CCCC(=O)O[C@H]1c2cc(OC)c(OC)c(OC)c2-c2c(cc3c(c2OC)OCO3)C[C@H](C)[C@]1(C)O | – | Not Active | – |

More lines, now with the values behind:

| SMILES | inhibition [2] | IC50 [1, 10] | IC50 ([1]; u-87mg atcc) | also measured |
| --- | --- | --- | --- | --- |
| COc1c2c(cc3c1-c1c(cc4c(c1OC)OCO4)C[C@H](C)[C@H](C)C3)OCO2 [SCHISANDRIN C] | – | > 100 µM | – | IC50 [3]: > 100 µM; IC50 [4]: > 100 µM; IC50 [5]: > 100 µM |
| COc1ccc([C@H]2OC[C@]3(O)[C@@H](c4ccc(OC)c(O)c4)OC[C@H]23)cc1O | – | – | – | LC50 at 24 h [6]: > 100 µg/mL |
| CCCCCCCCCCCCCC(=O)O[C@H]1c2cc(OC)c(OC)c(OC)c2-c2c(cc3c(c2OC)OCO3)C[C@H](C)[C@]1(C)O | 21.4% | – | Not Active | – |
| COc1cc([C@H]2OC[C@]3(O)[C@@H](c4ccc(O)c(OC)c4)OC[C@]23O)ccc1O | – | – | – | Activity [7]: Active |
| COc1cc2c(c(OC)c1OC)-c1c(cc3c(c1OC)OCO3)C[C@H](C)[C@]1(CO1)[C@H]2OC(=O)c1ccccc1 [SCHISANDRIN A1] | – | > 100 µM | – | IC50 [3]: > 100 µM; IC50 [4]: 50.8 µM; IC50 [5]: > 100 µM; LC50 at 24 h [6]: 97.5 µg/mL |
| COc1cc([C@H]2OC[C@]3(O)[C@@H](c4ccc(O)c(OC)c4)OC[C@H]23)ccc1O | – | – | – | Activity [7]: Active |
| CC(=O)O[C@@H]1C[C@H](O)[C@@]23CO[C@@H](O)[C@]1(C)[C@@H]2C[C@@H](O)[C@]1(C)[C@@H]3C(=O)[C@H](OC(C)=O)[C@@]2(C)[C@H](c3ccoc3)C[C@H]3O[C@]321 [TOOSENDANIN] | – | – | – | LC50 at 24 h [6]: < 1 µg/mL |
| CCCCCCCCCCCCCCCC(=O)O[C@H]1c2cc(OC)c(OC)c(OC)c2-c2c(cc3c(c2OC)OCO3)C[C@H](C)[C@]1(C)O | 4.8% | – | Not Active | – |
| COc1cc2c(c(OC)c1OC)-c1c(cc(OC)c(OC)c1OC)C[C@](C)(O)[C@@H](C)C2 [SCHIZANDRIN] | – | > 100 µM | – | IC50 [3]: > 100 µM; IC50 [4]: > 100 µM; Activity [8]: Active; IC50 [5]: > 100 µM; LC50 at 24 h [6]: > 100 µg/mL |
| C[C@]12CC[C@@H]3c4ccc(O)cc4CC[C@H]3[C@@H]1CC[C@@H]2O | – | – | – | Activity [9]: Dose-dependent effect |
| COc1cc(C=O)c(-c2c(C[C@H](C)C(C)=O)cc3c(c2OC)OCO3)c(OC)c1OC | 46.1% | – | Not Active | – |

From ChEMBL document CHEMBL2311411, “Lignans from Schisandra sphenathera Rehd. et Wils. and semisynthetic schisantherin A analogues: absolute configuration, and their estrogenic and anti-proliferative activity” (Eur J Med Chem, 2013)
